Like-named read-outs stand apart in the source and are kept apart here.
What was measured:
HDAC7 = target: T1, HDAC7 (Homo sapiens, UniProt Q8WUI4); assay: HDAC biochemical activity measurement (fluorescent substrate deacetylation);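 note: fluorogenic deacetylation assay using acetyl-lysine substrate at 20 µM, enzyme and compound incubated 30 min at 37 °C, then developer added, fluorescence read at 360/460 nm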; details: HDAC7; 37° C. 30 minutes
T1 sequence (Q8WUI4 1-952): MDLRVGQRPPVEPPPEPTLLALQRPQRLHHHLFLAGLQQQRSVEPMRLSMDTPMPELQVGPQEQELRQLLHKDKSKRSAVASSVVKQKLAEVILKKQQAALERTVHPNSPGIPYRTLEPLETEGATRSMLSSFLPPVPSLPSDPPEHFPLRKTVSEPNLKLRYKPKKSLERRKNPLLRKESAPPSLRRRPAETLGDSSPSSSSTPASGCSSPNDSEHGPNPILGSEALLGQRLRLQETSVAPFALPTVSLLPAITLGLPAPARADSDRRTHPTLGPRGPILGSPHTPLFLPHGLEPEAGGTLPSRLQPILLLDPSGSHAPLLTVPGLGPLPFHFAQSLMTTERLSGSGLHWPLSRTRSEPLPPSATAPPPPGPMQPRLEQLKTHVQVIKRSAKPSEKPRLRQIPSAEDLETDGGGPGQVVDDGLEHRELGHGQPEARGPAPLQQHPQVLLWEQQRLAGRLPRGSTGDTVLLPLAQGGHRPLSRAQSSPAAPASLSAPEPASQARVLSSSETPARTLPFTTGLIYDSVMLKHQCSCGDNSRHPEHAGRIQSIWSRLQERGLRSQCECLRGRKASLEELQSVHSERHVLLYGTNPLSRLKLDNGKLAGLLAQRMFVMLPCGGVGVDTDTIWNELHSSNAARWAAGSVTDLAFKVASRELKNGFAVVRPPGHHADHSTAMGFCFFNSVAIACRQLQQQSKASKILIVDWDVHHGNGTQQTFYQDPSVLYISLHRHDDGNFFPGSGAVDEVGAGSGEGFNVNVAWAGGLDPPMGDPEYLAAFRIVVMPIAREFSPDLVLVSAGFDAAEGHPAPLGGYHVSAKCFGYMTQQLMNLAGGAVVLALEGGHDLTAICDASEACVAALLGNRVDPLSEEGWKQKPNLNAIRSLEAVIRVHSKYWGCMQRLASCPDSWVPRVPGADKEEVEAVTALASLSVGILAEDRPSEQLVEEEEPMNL

[1] = tested on: A549 (human lung cancer cells); assay: MTT cancer cell growth inhibition; type: cell-based; details: Homo sapiens, A549, 72 h, MTT, 72 hours incubation, read-out: GI50 A54
Summary of the method: (§1)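 GI50 values come from MTT viability: after 72 h compound exposure (final 10^−5–10^−10 M, three wells each) of cells plated overnight at 1500/well in 10% FBS medium, MTT was given for 4 h. The DMSO-solubilised formazan was then measured at 570 nm.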

[2] = tested on: BGC-823 (human gastric cancer cells); assay: MTT cancer cell growth inhibition; type: cell-based; details: Homo sapiens, BGC-823, 72 h, MTT, 72 hours incubation, read-out: GI50 BG
Summary of the method: as §1

[3] = tested on: Bel-7402 (human hepatoma cells); assay: MTT cancer cell growth inhibition; type: cell-based; details: Homo sapiens, Bel-7402, 72 h, MTT, 72 hours incubation, Bel-7402 cells; read-out: GI50 Bel-7402
Summary of the method: as §1

[4] = tested on: DU145 (human prostate cancer cells); assay: MTT cancer cell growth inhibition; type: cell-based; details: Homo sapiens, DU-145, 72 h, MTT, 72 hours incubation, read-out: GI50 Du1
Summary of the method: as §1

[5] = tested on: H1975 (non-small cell lung adenocarcinoma); assay: MTT cancer cell growth inhibition; type: cell-based; details: Homo sapiens, NCI-H1975, 72 h, MTT, 72 hours incubation, H1975 cells; read-out: GI50 H1975
Summary of the method: as §1

[6] = tested on: HCC827 (human non-small cell lung cancer cells); assay: MTT cancer cell growth inhibition; type: cell-based; details: Homo sapiens, HCC827, 72 h, MTT, 72 hours incubation, HCC827 cells; read-out: GI50 HCC827
Summary of the method: as §1

[7] = tested on: HT1080 (human fibrosarcoma cells); assay: MTT cancer cell growth inhibition; type: cell-based; details: Homo sapiens, HT-1080, 72 h, MTT, 72 hours incubation, read-out: GI50 HT1
Summary of the method: as §1

[8] = tested on: Hela (human cervical cancer cells); assay: MTT cancer cell growth inhibition; type: cell-based; details: Homo sapiens, HeLa, 72 h, MTT, 72 hours incubation, read-out: GI50 Hela
Summary of the method: as §1

[9] = tested on: Huh-7 (human hepatoma cells); assay: MTT cancer cell growth inhibition; type: cell-based; details: Homo sapiens, Huh-7, 72 h, MTT, 72 hours incubation, Huh-7 cells; read-out: GI50 Huh-7
Summary of the method: as §1

[10] = tested on: K562 (human leukemia cells); assay: MTT cancer cell growth inhibition; type: cell-based; details: Homo sapiens, K562, 72 h, MTT, 72 hours incubation, K562 cells; read-out: GI50 K562
Summary of the method: as §1

[11] = tested on: KBM-5 (human chronic myelogenous leukemia); assay: MTT cancer cell growth inhibition; type: cell-based; details: Homo sapiens, KBM5, 72 h, MTT, 72 hours incubation, KBM-5 cells; read-out: GI50 KBM-5
Summary of the method: as §1

[12] = tested on: KBM5-T315I (human chronic myelogenous leukemia); assay: MTT cancer cell growth inhibition; type: cell-based; details: Homo sapiens, 72 h, MTT, 72 hours incubation, KBM5-T315I cells; read-out: GI50 KBM5-T315I
Summary of the method: as §1

[13] = tested on: MCF-7 (human breast cancer cells); assay: MTT cancer cell growth inhibition; type: cell-based; details: Homo sapiens, MCF7, 72 h, 72 hours incubation, read-out: GI50 MCF
Summary of the method: as §1

[14] = tested on: MDA-MB-231 (breast cancer cells); assay: MTT cancer cell growth inhibition; type: cell-based; details: Homo sapiens, MDA-MB-231, 72 h, read-out: GI50 MDA-MB-231, MTT, 72 hours incubation, MDA-MB-231 cells
Summary of the method: as §1

[15] = tested on: MOLT-4 (human acute lymphoblastic leukemia cells); assay: MTT cancer cell growth inhibition; type: cell-based; details: Homo sapiens, MOLT-4, 72 h, MTT, 72 hours incubation, read-out: GI50 Mol
Summary of the method: as §1

[16] = tested on: N-87 (human gastric cancer cells); assay: MTT cancer cell growth inhibition; type: cell-based; details: Homo sapiens, 72 h, MTT, 72 hours incubation, N-87 cells; read-out: GI50 N-87
Summary of the method: as §1

[17] = tested on: PANC-1 (Pac-1, human pancreatic cancer cells); assay: MTT cancer cell growth inhibition; type: cell-based; details: Homo sapiens, PANC-1, 72 h, MTT, 72 hours incubation, read-out: GI50 PAN
Summary of the method: as §1

[18] = tested on: SGC-7901 (human gastric cancer cells); assay: MTT cancer cell growth inhibition; type: cell-based; details: Homo sapiens, SGC-7901, 72 h, MTT, 72 hours incubation, SGC-7901 cells; read-out: GI50 SGC-7901
Summary of the method: as §1

[19] = tested on: U937 (human leukemia cells); assay: MTT cancer cell growth inhibition; type: cell-based; details: Homo sapiens, U-937, 72 h, MTT, 72 hours incubation, read-out: GI50 U93
Summary of the method: as §1

[20] = tested on: lncap (prostate cancer cells); assay: MTT cancer cell growth inhibition; type: cell-based; details: Homo sapiens, LNCaP, 72 h, MTT, 72 hours incubation, read-out: GI50 lnca
Summary of the method: as §1

Row | IC50 HDAC7 (HDAC7) | GI50 [3] [nM] | GI50 [5] [nM] | GI50 [6] [nM] | GI50 [9] [nM] | GI50 [10] [nM] | GI50 [11] [nM] | GI50 [12] [nM] | GI50 [14] [nM] | GI50 [16] [nM] | GI50 [18] [nM] | GI50 [1] [nM] | GI50 [2] [nM] | GI50 [4] [nM] | GI50 [7] [nM] | GI50 [8] [nM] | GI50 [13] [nM] | GI50 [15] [nM] | GI50 [17] [nM] | GI50 [19] [nM] | Structure (SMILES) | also measured
1 | no activity | 68 | 26 | 31 | 56 | 46 | 50 | 53 | 17 | 73 | 42 | – | – | – | – | – | – | – | – | – | C/C=C1\NC(=O)c2cc(SC)cc(n2)CNC(=O)C[C@@H](/C=C/CCSC(C)=O)OC(=O)[C@H](C(C)C)NC1=O [Compound 166] | GI50 ([1]; A549 cells): 10 nM; GI50 ([2]; BGC-823 cells): 70 nM; GI50 ([4]; DU145 cells): 60 nM; GI50 ([7]; HT1080 cells): 80 nM; GI50 ([8]; Hela cells): 50 nM; GI50 ([13]; MCF-7 cells): 60 nM; GI50 ([15]; MOLT-4 cells): 30 nM; GI50 ([17]; PANC-1 cells): 20 nM; GI50 ([19]; U937 cells): 30 nM; GI50 ([20]; lncap cells): 70 nM
2 | no activity | 41 | 33 | 22 | 38 | 42 | 35 | 42 | 41 | 21 | 33 | 80 | 30 | 30 | 130 | 40 | 30 | 60 | 50 | 10 | C/C=C1\NC(=O)c2cc(F)cc(n2)CNC(=O)C[C@@H](/C=C/CCS)OC(=O)[C@H](Cc2ccc(O)cc2)NC1=O [Compound 129] | GI50 [20]: 70 nM
3 | no activity | 56 | 48 | 17 | 35 | 62 | 62 | 33 | 69 | 35 | 12 | – | – | – | – | – | – | – | – | – | C/C=C1\NC(=O)c2ccc(SC)c(n2)CNC(=O)C[C@@H](/C=C/CCS)OC(=O)[C@H](C(C)C)NC1=O [Compound 228] | GI50 ([1]; A549 cells): 30 nM; GI50 ([2]; BGC-823 cells): 60 nM; GI50 ([4]; DU145 cells): 20 nM; GI50 ([7]; HT1080 cells): 40 nM; GI50 ([8]; Hela cells): 10 nM; GI50 ([13]; MCF-7 cells): 30 nM; GI50 ([15]; MOLT-4 cells): 50 nM; GI50 ([17]; PANC-1 cells): 30 nM; GI50 ([19]; U937 cells): 40 nM; GI50 ([20]; lncap cells): 20 nM
4 | no activity | 57 | 42 | 57 | 19 | 27 | 82 | 37 | 19 | 21 | 37 | 30 | 20 | 20 | 50 | 80 | 30 | 10 | 50 | 40 | CC(=O)SCC/C=C/[C@@H]1CC(=O)NCc2ccc(F)c(n2)C(=O)NC(=C(C)C)C(=O)N[C@@H](C(C)C)C(=O)O1 [Compound 87] | GI50 [20]: 10 nM
5 | no activity | 84 | 34 | 84 | 33 | 39 | 77 | 64 | 33 | 49 | 34 | 30 | 40 | 30 | 80 | 70 | 60 | 30 | 80 | 30 | C/C=C1\NC(=O)c2ccc(F)c(n2)CNC(=O)C[C@@H](/C=C/CCSC(=O)CCCCC)OC(=O)[C@H](C(C)C)NC1=O [Example 38] | GI50 [20]: 30 nM
6 | no activity | 34 | 72 | 86 | 66 | 35 | 22 | 59 | 58 | 16 | 33 | 60 | 70 | 10 | 40 | 80 | 20 | 20 | 60 | 30 | C/C=C1\NC(=O)c2cc(F)cc(n2)CNC(=O)C[C@@H](/C=C/CCS)OC(=O)[C@H](CCCCN)NC1=O [Compound 117] | GI50 [20]: 20 nM
7 | no activity | 94 | 34 | 94 | 49 | 53 | 74 | 53 | 49 | 67 | 49 | 40 | 60 | 50 | 90 | 70 | 50 | 40 | 90 | 30 | C/C=C1\NC(=O)c2cc(F)cc(n2)CNC(=O)C[C@@H](/C=C/CCSC(=O)CCCCCC)OC(=O)[C@H](C(C)C)NC1=O [Example 34] | GI50 [20]: 40 nM

Reference: US10065990B2, “Cyclic peptide compound, and preparation method, pharmaceutical composition and use thereof” (HANGZHOU GUANYU BIO-MEDICAL CO., LTD, priority 2013, dated 2018)
